# Measurements: PMC10574767, “Extractives from Artemisia afra with Anti-Bacterial and Anti-Fungal Properties” (Plants, 2023)
# Read-outs that look alike come from different tables or passages of the source.
# Key:
# [1] = tested on: intra-erythrocytic and gametocyte asexual P. falciparum parasites; set-up: method as in PMID 30849984; conditions: intra-erythrocytic and gametocyte stages; cited from earlier work
# [2] = tested on: COX-2; set-up: method as in doi:10.3329/bjp.v8i2.14167; conditions: cited from earlier work
# [3] = tested on: COX-1; set-up: method as in doi:10.3329/bjp.v8i2.14167; conditions: cited from earlier work
# [4] = tested on: Candida albicans ATCC 10231; assay: Serial dilution microplate MIC (fungi); assay type: cell-based; conditions: for MIC: Candida albicans; for Selectivity index C. albicans: in brackets, Vero LC50 vs MIC
# Experimental: (§1) The MIC value of the plant extracts and isolated compounds against one fungal and five bacterial strains (Salmonella Typhimurium ATCC 39183, Escherichia coli ATCC 25922, Pseudomonas aeruginosa ATCC 27853, Staphylococcus aureus ATCC 29213, Enterococcus faecalis ATCC 29212, and fungi culture, Candida albicans ATCC 10231) was assessed in triplicate using the serial dilution microplate method; acetone and DMSO were used as solvents. Bacterial cultures were grown in Mueller Hinton broth (Sigma Aldrich, St. Louis, MO, USA) overnight and adjusted to McFarland standard 1 (1 × 10^8 CFU/mL). Then, 100 µL of samples were transferred into the first well of a sterile 96-well microtiter plate, which contained 100 µL of water and a 1:1 serial dilution with sterilized distilled water was carried out. In each well, 100 µL of appropriately adjusted fungal or bacterial cultures were added, and the bacteria were subjected to final concentrations of 250–3.9 μg/mL for pure compounds and 2.5–0.02 mg/mL for crude extracts. Amphotericin-B and Gentamicin (Virbac, Carros, France) served as positive controls for fungi and bacteria, respectively. For sterility, water served as control, while acetone served as a negative control. The microplates were then incubated for 24 h at 37 °C. Following incubation, 40 µL of 0.2 mg/mL p-iodonitrotetrazolium violet (INT, Sigma Aldrich) dissolved in water (hot) was added to the wells before being incubated at 37 °C for another 2 h. In the case of fungi, the INT was added before incubation. The MIC was measured visually as the lowest concentration of the compounds/extracts that inhibited proliferation.
# [5] = tested on: Botrytis cinerea and Sclerotinia sclerotiorum; set-up: method as in PMID 37570772; conditions: cited from earlier work
# [6] = in vitro
# Experimental: Cytotoxicity of compounds and extracts was tested against mammalian cells using the MTT assay. MCF-7 cancer cells were grown in a 5% CO2 incubator in Dulbecco’s Modified Eagle’s Medium (DMEM, Highveld Biological, Johannesburg, South Africa) supplemented with 10% fetal calf serum (Adcock-Ingram, Johannesburg, South Africa) and 1% penicillin-streptomycin (10,000 U/mL and 10 mg/mL streptomycin, Sigma Aldrich). In a 5% CO2 incubator, Vero cells were grown in a minimal essential medium (MEM, Highveld Biological, South Africa) supplemented with 5% fetal calf serum (Adcock-Ingram) and 0.1% gentamicin (Virbac). Cell suspensions were obtained from 70–80% confluent monolayer cultures and were plated in 96-well cell culture plates at a density of 1 × 10^4. Plates were incubated in a 5% CO2 incubator for 24 h at 37 °C. The cells were exposed to the extracts or compounds dissolved in the media at different concentrations for 48 h. Positive and negative controls were doxorubicin (Pfizer, New York, NYC, USA) and acetone or DMSO, respectively. After that, the wells were rinsed with phosphate-buffered saline (PBS, Sigma) and 200 µL of fresh medium was poured into the wells. Thirty microlitres (5 mg/mL) of MTT (Sigma) dissolved in PBS was added to each well, and the plates were incubated at 37 °C for 4 h. The medium from the wells was removed, rinsed, and 50 µL of 100% DMSO was added to the wells. At a wavelength of 570 nm, absorbance was measured using a microplate reader (BioTek Synergy, Beijing, China). Each sample concentration was tested in quadruplicate in two repeats (n = 8), and the concentration causing 50% inhibition of cell viability (LC50) was calculated. Selectivity index (SI) values for the extracts/compounds were obtained by dividing cytotoxicity LC50 values of normal (Vero) cells by those of the cancer cells.
# [7] = tested on: Staphylococcus aureus ATCC 29213; assay: Serial dilution microplate MIC; assay type: cell-based; conditions: for MIC: Staphylococcus aureus; for Selectivity index S. aureus: in brackets, Vero LC50 vs MIC
# Experimental: as §1
# [8] = tested on: Salmonella Typhimurium ATCC 39183; assay: Serial dilution microplate MIC; assay type: cell-based; conditions: for MIC: Salmonella enterica, read-out: Minimum inhibitory concentration (MIC) S. Typhimurium; for Selectivity index S. Typhimurium: in brackets, Vero LC50 vs MIC
# Experimental: as §1
# [9] = tested on: Escherichia coli ATCC 25922; assay: Serial dilution microplate MIC; assay type: cell-based; conditions: for MIC: Escherichia coli; for Selectivity index E. coli: in brackets, Vero LC50 vs MIC
# Experimental: as §1
# [10] = tested on: Enterococcus faecalis ATCC 29212; assay: Serial dilution microplate MIC; assay type: cell-based; conditions: for MIC: Enterococcus faecalis; for Selectivity index E. faecalis: in brackets, Vero LC50 vs MIC
# Experimental: as §1
# [11] = tested on: Pseudomonas aeruginosa ATCC 27853; assay: Serial dilution microplate MIC; assay type: cell-based; conditions: for MIC: Pseudomonas aeruginosa; for Selectivity index P. aeruginosa: in brackets, Vero LC50 vs MIC
# Experimental: as §1
# [12] = tested on: Plasmodium falciparum; set-up: method as in PMID 32664596; conditions: cited from earlier work
# [13] = tested on: Caco-2 tumor cells; set-up: method as in PMID 27357542; conditions: 5 μg/mL; cited from earlier work
# [14] = tested on: HEK295; set-up: method as in PMID 27357542; conditions: cited from earlier work
# [15] = tested on: MCF-7 tumor cells; set-up: method as in PMID 27357542; conditions: 1 µg/mL; cited from earlier work
# [16] = tested on: Leishmania braziliensis amastigotes; set-up: method as in PMID 32664596; conditions: cited from earlier work
# [17] = tested on: S. aureus; set-up: method as in PMID 23480526; conditions: cited from earlier work
# [18] = tested on: P. aeruginosa; set-up: method as in PMID 23480526; conditions: cited from earlier work
# [19] = tested on: one fungal and five bacterial strains; assay: Serial dilution microplate MIC, whole panel; assay type: cell-based; conditions: isolated compounds, highest concentration 250 µg/mL
# Experimental: as §1
# [20] = tested on: E. coli; set-up: method as in PMID 23480526; conditions: cited from earlier work
# [21] = tested on: L. monocytogenes; set-up: method as in PMID 23480526; conditions: cited from earlier work
# [22] = set-up: method as in PMID 22693528; conditions: cited from earlier work
# [23] = ATCC10231, isolated compounds, Table 2, read-out: Minimum inhibitory concentration (MIC) C. albicans
# [24] = ATCC29213, isolated compounds, Table 2, read-out: Minimum inhibitory concentration (MIC) S. aureus
# [25] = ATCC25922, isolated compounds, Table 2, read-out: Minimum inhibitory concentration (MIC) E. coli
# [26] = ATCC29212, isolated compounds, Table 2, read-out: Minimum inhibitory concentration (MIC) E. faecalis
# [27] = ATCC27853, isolated compounds, Table 2, read-out: Minimum inhibitory concentration (MIC) P. aeruginosa
smiles,measurement,setting,value
"C=C1C(=O)O[C@H]2C1[C@@H](OC(C)=O)CC(=C)[C@]1(O)C=C[C@@](C)(O)[C@H]21 (stereo partly drawn) [1α, 4α-dihydroxybishopsolicepolide]",IC50,[1],~10 µM
"CC(=O)O[C@H]1CC[C@]2(C)[C@H]3CC[C@]4(C)C(=CC[C@@]5(C)CCC(C)(C)C[C@H]54)[C@]3(C)CC[C@H]2C1(C)C [3β-Taraxerol acetate, 3β-taraxerol acetate]",IC50,[2],94.7 µM
same,IC50,[3],116 µM
"C[C@@H]1[C@H](O)[C@@H](C)/C=C/C=C/C=C/C=C/C=C/C=C/C=C/[C@H](O[C@@H]2O[C@H](C)[C@@H](O)[C@H](N)[C@@H]2O)C[C@@H]2O[C@](O)(C[C@@H](O)C[C@@H](O)[C@H](O)CC[C@@H](O)C[C@@H](O)CC(=O)O[C@H]1C)C[C@H](O)[C@H]2C(=O)O [Amphotericin-B, reference compound]",MIC,"[4]; ATCC10231, crude extracts, Table 1, read-out: Minimum inhibitory concentration (MIC) C. albicans",20 µg/mL
same,MIC,[4]; [23],3.9 µg/mL
"CCCCCCCCCCCCOC(=O)/C=C/c1ccc(O)cc1 [Dodecyl-p-coumarate, dodecyl-p-coumarate]",Mycelium growth of Botrytis cinerea and Sclerotinia sclerotiorum,[5],inhibition of mycelium growth
same,CC50 at 48 h,[6],> 200 µg/mL
same,MIC,"[7]; ATCC29213, read-out: Minimum inhibitory concentration (MIC) S. aureus",> 250 µg/mL
same,Selectivity index S. aureus,[7]; Table 2,< 0.8
same,MIC,"[8]; isolated compounds, Table 2",> 250 µg/mL
same,Selectivity index S. Typhimurium,[8]; Table 2,< 0.8
same,MIC,"[9]; ATCC25922, read-out: Minimum inhibitory concentration (MIC) E. coli",> 250 µg/mL
same,Selectivity index E. coli,[9]; Table 2,< 0.8
same,MIC,"[10]; ATCC29212, read-out: Minimum inhibitory concentration (MIC) E. faecalis",62.5 µg/mL
same,Selectivity index E. faecalis,[10]; Table 2,> 3.2
same,MIC,"[11]; ATCC27853, read-out: Minimum inhibitory concentration (MIC) P. aeruginosa",> 250 µg/mL
same,Selectivity index P. aeruginosa,[11]; Table 2,< 0.8
same,EC50 Plasmodium falciparum,[12],81.19 ± 8.54 µg/mL
same,Reduction of viability of Caco-2 tumor cells,[13],≥ 15%
same,MIC,"[4]; ATCC10231, read-out: Minimum inhibitory concentration (MIC) C. albicans",250 µg/mL
same,Selectivity index C. albicans,[4]; Table 2,> 0.8
same,Toxic effect on HEK295,[14],minimal toxic effect
same,Reduction of viability of MCF-7 tumor cells,[15],at least 23%
same,EC50 Leishmania braziliensis amastigotes,[16],16.34 ± 0.49 µg/mL
"COc1cc(/C=C/C(=O)O)ccc1O [Ferulic acid, ferulic acid]",MIC S. aureus,[17],1100 µg/mL
same,MIC P. aeruginosa,[18],100 µg/mL
same,CC50 at 48 h,[6],> 200 µg/mL
same,MIC,"[19]; all tested strains, read-out: MIC against all tested microorganisms",≥ 250 µg/mL
same,MIC against all tested microorganisms,[19],no efficacy
same,MIC,[7]; [24],250 µg/mL
same,Selectivity index S. aureus,[7]; Table 2,> 0.8
same,MIC,"[8]; isolated compounds, Table 2",> 250 µg/mL
same,Selectivity index S. Typhimurium,[8]; Table 2,< 0.8
same,MIC,[9]; [25],> 250 µg/mL
same,Selectivity index E. coli,[9]; Table 2,< 0.8
same,MIC,[10]; [26],> 250 µg/mL
same,Selectivity index E. faecalis,[10]; Table 2,< 0.8
same,MIC,[11]; [27],> 250 µg/mL
same,Selectivity index P. aeruginosa,[11]; Table 2,< 0.8
same,MIC E. coli,[20],100 µg/mL
same,MIC L. monocytogenes,[21],1250 µg/mL
same,MIC,[4]; [23],250 µg/mL
same,Selectivity index C. albicans,[4]; Table 2,> 0.8
"CNC(C)C1CCC(N)C(OC2C(N)CC(N)C(OC3OCC(C)(O)C(NC)C3O)C2O)O1 (stereo not shown) [Gentamicin, reference compound]",MIC,"[7]; ATCC29213, crude extracts, Table 1, read-out: Minimum inhibitory concentration (MIC) S. aureus",20 µg/mL
same,MIC,[7]; [24],3.9 µg/mL
same,MIC,"[8]; crude extracts, Table 1",20 µg/mL
same,MIC,"[8]; isolated compounds, Table 2",3.9 µg/mL
same,MIC,"[9]; ATCC25922, crude extracts, Table 1, read-out: Minimum inhibitory concentration (MIC) E. coli",20 µg/mL
same,MIC,[9]; [25],3.9 µg/mL
same,MIC,"[10]; ATCC29212, crude extracts, Table 1, read-out: Minimum inhibitory concentration (MIC) E. faecalis",20 µg/mL
same,MIC,[10]; [26],3.9 µg/mL
same,MIC,"[11]; ATCC27853, crude extracts, Table 1, read-out: Minimum inhibitory concentration (MIC) P. aeruginosa",20 µg/mL
same,MIC,[11]; [27],3.9 µg/mL
C=C1C(=O)O[C@H]2[C@H]1[C@@H](OC(C)=O)C[C@@](C)(O)[C@@]13O[C@@H]1[C@@H]1O[C@]1(C)[C@H]23 [Yomogiartemin],IC50,[1],~10 µM
"O=C1O[C@H]([C@@H](O)CO)C(O)=C1O [vitamin C, reference compound]",IC50 DPPH radical,[22],1.22 µg/mL
